{"source": "patent US20130203598A1", "about": "“USE OF PHOTOSYNTHETIC PIGMENT STABILIZING AGENTS TO REGULATE RIPENING AND QUALITY IN FRUITS AND VEGETABLES” (WASHINGTON STATE UNIVERSITY, priority 2011, published 2013)", "key": {"d'Anjou pears [1]": {"tested_on": "d'Anjou pears", "test": "Fruit firmness (pressure) of d'Anjou pears treated on trees before harvest, after commercial controlled atmosphere storage", "format": "in vivo, d'Anjou pear (Pyrus communis)", "method": "FIG. 1. Fruit pressure of Bluestim™ (glycine betaine)-treated and untreated d'Anjou pears. D'Anjou pears were treated on trees with Bluestim™ concentrations of 0, 2.5, 5, and 10 lbs/acre on Aug. 17, 2010. Pears were harvested on 9/20/2010 and stored in commercial controlled atmosphere (CA) facilities. Pears were removed from storage on Jan. 7, 2011.\nFIG. 3. Fruit pressure of Bluestim™ (glycine betaine)-treated and untreated d'Anjou pears. D'Anjou pears were treated on trees with Bluestim™ concentrations of 0 and 7.5 lbs/acre before harvest. Pears were harvested during the fall and stored in commercial controlled atmosphere (CA) facilities. Pears were removed from storage approximately 3 months later. Fruit firmness and % Brix were measured approximately 1 month after removal from storage.\nIn addition, the degree of firmness and/or lack thereof may be used as an indicator of ripeness. Fruit firmness is generally measured as kg/cm^−2 and suitable ranges of firmness values for unripened and ripe fruit and vegetables are well-known to those of skill in the art. Firmness may be measured using a variety of instruments such as various fruit firmness testers, force gauges, etc."}, "d'Anjou pears [2]": {"tested_on": "d'Anjou pears", "test": "Soluble sugars (% Brix) of d'Anjou pears treated on trees before harvest, after commercial controlled atmosphere storage", "format": "in vivo, d'Anjou pear (Pyrus communis)", "conditions": "application before harvest, after CA storage (FIGS. 2 and 3)", "method": "FIG. 2. Percent Brix of Bluestim™-treated pears after CA storage. Percent Brix were measured for all pear treatments after they were removed from the commercial CA storage conditions. FIG. 3. Fruit pressure of Bluestim™ (glycine betaine)-treated and untreated d'Anjou pears. D'Anjou pears were treated on trees with Bluestim™ concentrations of 0 and 7.5 lbs/acre before harvest. Pears were harvested during the fall and stored in commercial controlled atmosphere (CA) facilities. Pears were removed from storage approximately 3 months later. Fruit firmness and % Brix were measured approximately 1 month after removal from storage. In one embodiment, the methods of the invention are carried out before a fruit is “ripe”, i.e. before the fruit has a soluble solids content or “SSC” (which generally corresponds to sugar content) that is generally recognized in the art as suitable for a fruit of interest. […] Percent sugar content is typically measured, for example, in degrees Brix (symbol °Bx) which is the sugar content of an aqueous solution. […] Those of skill in the art will recognize that typical Brix values for fruit and vegetables to which glycine betaine is applied as described herein will vary widely depending on the type of fruit or vegetable, and will be able to readily able to determine suitable values. […]"}, "[3]": {"conditions": "use on comestible substances, consumption by humans or other animals; cited from earlier work"}}}
{"smiles": "C[N+](C)(C)CC(=O)O", "note": "[glycine betaine, N,N,N-trimethylglycine]", "values": [{"measurement": "fruit firmness compared to untreated pears", "setting": "d'Anjou pears [1]; application before harvest, 2.5, 5, 10 or 7.5 lbs/acre, same post-harvest storage conditions (FIGS. 1 and 3)", "value": "firmer pears compared to untreated pears"}, {"measurement": "fruit firmness, dose dependence", "setting": "d'Anjou pears [1]; application before harvest, 10 lbs/acre is the highest dose", "value": "increased the fruit firmness in a dose dependent manner, with applications of 10 lbs/acre yielding the firmest pears"}, {"measurement": "reversibility of the effect on firmness and % BRIX as time passes", "setting": "d'Anjou pears [1]; treated pears as time passes after treatment", "value": "soften and exhibit increases in % BRIX, indicating that the effect is temporary"}, {"measurement": "soluble sugars measured in % BRIX", "setting": "d'Anjou pears [2]", "value": "decrease in soluble sugars measured in % BRIX in a dose dependent manner"}, {"measurement": "toxicity", "setting": "[3]", "value": "non-toxic"}]}
